Assay [1] has as its target RAC-alpha serine/threonine-protein kinase (Homo sapiens) (UniProt P31749). The assay can be described thus: Inhibition of AKT1 (unknown origin) at 50 nM by Z'LYTE screening method relative to control.
For assay [2], the target named is ALK tyrosine kinase receptor (Homo sapiens) (UniProt Q9UM73). The experiment in a line: Inhibition of ALK (unknown origin) at 50 nM by Z'LYTE screening method relative to control.
Assay [3] concerns the target Aurora kinase B (Homo sapiens) (UniProt Q96GD4). The assay can be described thus: Inhibition of AURB (unknown origin) at 50 nM by Z'LYTE screening method relative to control.
A further assay is filed under the species Homo sapiens. The assay can be described thus: Inhibition of CDK1/Cyclin B (unknown origin) at 50 nM by Z'LYTE screening method relative to control.
Assay [4] addresses DNA-dependent protein kinase catalytic subunit (Homo sapiens) (UniProt P78527). The assay can be described thus: Inhibition of DNA-PK (unknown origin) at 50 nM by Z'LYTE screening method relative to control.
Assay [5] concerns the target Serine/threonine-protein kinase mTOR (Homo sapiens) (UniProt P42345). The experiment in a line: Inhibition of FRAP1 (unknown origin) at 50 nM by Z'LYTE screening method relative to control.
For assay [6], the target named is Mitogen-activated protein kinase 8 (Homo sapiens) (UniProt P45983). The assay can be described thus: Inhibition of MAPK8 (unknown origin) at 50 nM by Z'LYTE screening method relative to control.
The target in assay [7] is Protein kinase C beta type (Homo sapiens) (UniProt P05771). The assay can be described thus: Inhibition of PKCbeta2 (unknown origin) at 50 nM by Z'LYTE screening method relative to control.
Chain of Protein kinase C beta type (Homo sapiens) (P05771 2-671 limits assumed): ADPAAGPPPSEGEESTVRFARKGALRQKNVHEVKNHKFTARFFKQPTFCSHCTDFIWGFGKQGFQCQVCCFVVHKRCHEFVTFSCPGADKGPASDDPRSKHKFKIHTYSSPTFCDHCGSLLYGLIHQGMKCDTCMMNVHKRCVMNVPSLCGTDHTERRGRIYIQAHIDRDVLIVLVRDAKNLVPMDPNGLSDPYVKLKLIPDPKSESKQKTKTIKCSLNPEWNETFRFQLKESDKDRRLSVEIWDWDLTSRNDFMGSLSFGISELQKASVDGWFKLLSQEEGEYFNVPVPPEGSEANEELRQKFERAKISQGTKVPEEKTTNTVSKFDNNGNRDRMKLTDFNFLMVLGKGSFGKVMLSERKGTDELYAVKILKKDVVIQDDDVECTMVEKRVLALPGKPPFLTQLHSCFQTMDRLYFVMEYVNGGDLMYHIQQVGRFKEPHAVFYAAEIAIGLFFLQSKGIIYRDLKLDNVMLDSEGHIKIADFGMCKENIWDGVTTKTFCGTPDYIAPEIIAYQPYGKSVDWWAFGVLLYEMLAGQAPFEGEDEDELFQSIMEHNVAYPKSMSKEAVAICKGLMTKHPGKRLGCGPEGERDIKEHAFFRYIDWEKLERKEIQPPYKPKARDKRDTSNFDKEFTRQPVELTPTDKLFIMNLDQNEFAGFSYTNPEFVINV
The target of assay [8] is Protein kinase C delta type (Homo sapiens) (UniProt Q05655). The experiment in a line: Inhibition of PKCdelta (unknown origin) at 50 nM by Z'LYTE screening method relative to control.
The target in assay [9] is T1, Serine/threonine-protein kinase D3 (Homo sapiens) (UniProt O94806).
T1 sequence (whole entry): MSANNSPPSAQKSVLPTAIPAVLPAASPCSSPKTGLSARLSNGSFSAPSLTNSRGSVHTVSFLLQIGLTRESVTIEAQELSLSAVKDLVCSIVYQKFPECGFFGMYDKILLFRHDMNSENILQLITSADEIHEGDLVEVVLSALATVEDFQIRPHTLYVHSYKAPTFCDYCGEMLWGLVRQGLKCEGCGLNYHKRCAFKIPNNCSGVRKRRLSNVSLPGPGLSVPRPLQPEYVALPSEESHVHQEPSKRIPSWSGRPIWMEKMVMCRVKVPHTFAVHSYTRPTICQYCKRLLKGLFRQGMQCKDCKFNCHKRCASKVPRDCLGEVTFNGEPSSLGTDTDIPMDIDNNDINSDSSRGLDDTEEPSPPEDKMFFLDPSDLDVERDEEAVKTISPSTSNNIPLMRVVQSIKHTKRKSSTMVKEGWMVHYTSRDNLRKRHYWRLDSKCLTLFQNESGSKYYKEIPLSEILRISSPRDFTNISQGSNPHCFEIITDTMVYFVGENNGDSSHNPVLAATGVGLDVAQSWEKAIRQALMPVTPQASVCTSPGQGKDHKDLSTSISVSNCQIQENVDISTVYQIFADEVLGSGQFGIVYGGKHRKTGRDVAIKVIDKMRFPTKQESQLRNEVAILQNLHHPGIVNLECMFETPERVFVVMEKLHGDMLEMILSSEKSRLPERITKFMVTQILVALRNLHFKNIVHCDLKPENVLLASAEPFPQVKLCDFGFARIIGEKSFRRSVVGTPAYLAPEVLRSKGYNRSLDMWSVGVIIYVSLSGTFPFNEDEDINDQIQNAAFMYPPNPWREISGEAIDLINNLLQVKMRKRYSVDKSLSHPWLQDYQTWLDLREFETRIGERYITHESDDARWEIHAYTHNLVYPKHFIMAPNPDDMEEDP
The assay can be described thus: Inhibition of PKCnu (unknown origin) at 50 nM by Z'LYTE screening method relative to control.

Assay [10] addresses Ribosomal protein S6 kinase alpha-1 (Homo sapiens) (UniProt Q15418). The assay can be described thus: Inhibition of RPS6KA1 (unknown origin) at 50 nM by Z'LYTE screening method relative to control.
Assay [11] concerns the target Proto-oncogene tyrosine-protein kinase Src (Homo sapiens) (UniProt P12931). The assay can be described thus: Inhibition of SRC (unknown origin) at 50 nM by Z'LYTE screening method relative to control.
The target of assay [12] is Tyrosine-protein kinase SYK (Homo sapiens) (UniProt P43405). The assay can be described thus: Inhibition of SYK (unknown origin) at 50 nM by Z'LYTE screening method relative to control.
Assay [13] concerns the target Tyrosine-protein kinase Yes (Homo sapiens) (UniProt P07947). The assay can be described thus: Inhibition of YES1 (unknown origin) at 50 nM by Z'LYTE screening method relative to control.
Assay [14] deals with Hepatocyte growth factor receptor (Homo sapiens) (UniProt P08581). The assay can be described thus: Inhibition of cMet (unknown origin) at 50 nM by Z'LYTE screening method relative to control.
Another assay concerns MDA-MB-231. The assay can be described thus: Cytotoxicity against human MDA-MB-231/M cells assessed as reduction in cell viability incubated for 96 hrs by MTT assay. The format is functional, cell-based. Particulars: MDA-MB-231, 96 h. (Tetrazolium dyes change colour on reduction, which living cells bring about.)
In another assay the test system is 4T1. The experiment in a line: Cytotoxicity against mouse 4T1 cells assessed as reduction in cell viability incubated for 96 hrs by MTT assay. The format is functional, cell-based. As to conditions: 4T1, 96 h.

Chain of DNA-dependent protein kinase catalytic subunit (Homo sapiens) (P78527 whole entry): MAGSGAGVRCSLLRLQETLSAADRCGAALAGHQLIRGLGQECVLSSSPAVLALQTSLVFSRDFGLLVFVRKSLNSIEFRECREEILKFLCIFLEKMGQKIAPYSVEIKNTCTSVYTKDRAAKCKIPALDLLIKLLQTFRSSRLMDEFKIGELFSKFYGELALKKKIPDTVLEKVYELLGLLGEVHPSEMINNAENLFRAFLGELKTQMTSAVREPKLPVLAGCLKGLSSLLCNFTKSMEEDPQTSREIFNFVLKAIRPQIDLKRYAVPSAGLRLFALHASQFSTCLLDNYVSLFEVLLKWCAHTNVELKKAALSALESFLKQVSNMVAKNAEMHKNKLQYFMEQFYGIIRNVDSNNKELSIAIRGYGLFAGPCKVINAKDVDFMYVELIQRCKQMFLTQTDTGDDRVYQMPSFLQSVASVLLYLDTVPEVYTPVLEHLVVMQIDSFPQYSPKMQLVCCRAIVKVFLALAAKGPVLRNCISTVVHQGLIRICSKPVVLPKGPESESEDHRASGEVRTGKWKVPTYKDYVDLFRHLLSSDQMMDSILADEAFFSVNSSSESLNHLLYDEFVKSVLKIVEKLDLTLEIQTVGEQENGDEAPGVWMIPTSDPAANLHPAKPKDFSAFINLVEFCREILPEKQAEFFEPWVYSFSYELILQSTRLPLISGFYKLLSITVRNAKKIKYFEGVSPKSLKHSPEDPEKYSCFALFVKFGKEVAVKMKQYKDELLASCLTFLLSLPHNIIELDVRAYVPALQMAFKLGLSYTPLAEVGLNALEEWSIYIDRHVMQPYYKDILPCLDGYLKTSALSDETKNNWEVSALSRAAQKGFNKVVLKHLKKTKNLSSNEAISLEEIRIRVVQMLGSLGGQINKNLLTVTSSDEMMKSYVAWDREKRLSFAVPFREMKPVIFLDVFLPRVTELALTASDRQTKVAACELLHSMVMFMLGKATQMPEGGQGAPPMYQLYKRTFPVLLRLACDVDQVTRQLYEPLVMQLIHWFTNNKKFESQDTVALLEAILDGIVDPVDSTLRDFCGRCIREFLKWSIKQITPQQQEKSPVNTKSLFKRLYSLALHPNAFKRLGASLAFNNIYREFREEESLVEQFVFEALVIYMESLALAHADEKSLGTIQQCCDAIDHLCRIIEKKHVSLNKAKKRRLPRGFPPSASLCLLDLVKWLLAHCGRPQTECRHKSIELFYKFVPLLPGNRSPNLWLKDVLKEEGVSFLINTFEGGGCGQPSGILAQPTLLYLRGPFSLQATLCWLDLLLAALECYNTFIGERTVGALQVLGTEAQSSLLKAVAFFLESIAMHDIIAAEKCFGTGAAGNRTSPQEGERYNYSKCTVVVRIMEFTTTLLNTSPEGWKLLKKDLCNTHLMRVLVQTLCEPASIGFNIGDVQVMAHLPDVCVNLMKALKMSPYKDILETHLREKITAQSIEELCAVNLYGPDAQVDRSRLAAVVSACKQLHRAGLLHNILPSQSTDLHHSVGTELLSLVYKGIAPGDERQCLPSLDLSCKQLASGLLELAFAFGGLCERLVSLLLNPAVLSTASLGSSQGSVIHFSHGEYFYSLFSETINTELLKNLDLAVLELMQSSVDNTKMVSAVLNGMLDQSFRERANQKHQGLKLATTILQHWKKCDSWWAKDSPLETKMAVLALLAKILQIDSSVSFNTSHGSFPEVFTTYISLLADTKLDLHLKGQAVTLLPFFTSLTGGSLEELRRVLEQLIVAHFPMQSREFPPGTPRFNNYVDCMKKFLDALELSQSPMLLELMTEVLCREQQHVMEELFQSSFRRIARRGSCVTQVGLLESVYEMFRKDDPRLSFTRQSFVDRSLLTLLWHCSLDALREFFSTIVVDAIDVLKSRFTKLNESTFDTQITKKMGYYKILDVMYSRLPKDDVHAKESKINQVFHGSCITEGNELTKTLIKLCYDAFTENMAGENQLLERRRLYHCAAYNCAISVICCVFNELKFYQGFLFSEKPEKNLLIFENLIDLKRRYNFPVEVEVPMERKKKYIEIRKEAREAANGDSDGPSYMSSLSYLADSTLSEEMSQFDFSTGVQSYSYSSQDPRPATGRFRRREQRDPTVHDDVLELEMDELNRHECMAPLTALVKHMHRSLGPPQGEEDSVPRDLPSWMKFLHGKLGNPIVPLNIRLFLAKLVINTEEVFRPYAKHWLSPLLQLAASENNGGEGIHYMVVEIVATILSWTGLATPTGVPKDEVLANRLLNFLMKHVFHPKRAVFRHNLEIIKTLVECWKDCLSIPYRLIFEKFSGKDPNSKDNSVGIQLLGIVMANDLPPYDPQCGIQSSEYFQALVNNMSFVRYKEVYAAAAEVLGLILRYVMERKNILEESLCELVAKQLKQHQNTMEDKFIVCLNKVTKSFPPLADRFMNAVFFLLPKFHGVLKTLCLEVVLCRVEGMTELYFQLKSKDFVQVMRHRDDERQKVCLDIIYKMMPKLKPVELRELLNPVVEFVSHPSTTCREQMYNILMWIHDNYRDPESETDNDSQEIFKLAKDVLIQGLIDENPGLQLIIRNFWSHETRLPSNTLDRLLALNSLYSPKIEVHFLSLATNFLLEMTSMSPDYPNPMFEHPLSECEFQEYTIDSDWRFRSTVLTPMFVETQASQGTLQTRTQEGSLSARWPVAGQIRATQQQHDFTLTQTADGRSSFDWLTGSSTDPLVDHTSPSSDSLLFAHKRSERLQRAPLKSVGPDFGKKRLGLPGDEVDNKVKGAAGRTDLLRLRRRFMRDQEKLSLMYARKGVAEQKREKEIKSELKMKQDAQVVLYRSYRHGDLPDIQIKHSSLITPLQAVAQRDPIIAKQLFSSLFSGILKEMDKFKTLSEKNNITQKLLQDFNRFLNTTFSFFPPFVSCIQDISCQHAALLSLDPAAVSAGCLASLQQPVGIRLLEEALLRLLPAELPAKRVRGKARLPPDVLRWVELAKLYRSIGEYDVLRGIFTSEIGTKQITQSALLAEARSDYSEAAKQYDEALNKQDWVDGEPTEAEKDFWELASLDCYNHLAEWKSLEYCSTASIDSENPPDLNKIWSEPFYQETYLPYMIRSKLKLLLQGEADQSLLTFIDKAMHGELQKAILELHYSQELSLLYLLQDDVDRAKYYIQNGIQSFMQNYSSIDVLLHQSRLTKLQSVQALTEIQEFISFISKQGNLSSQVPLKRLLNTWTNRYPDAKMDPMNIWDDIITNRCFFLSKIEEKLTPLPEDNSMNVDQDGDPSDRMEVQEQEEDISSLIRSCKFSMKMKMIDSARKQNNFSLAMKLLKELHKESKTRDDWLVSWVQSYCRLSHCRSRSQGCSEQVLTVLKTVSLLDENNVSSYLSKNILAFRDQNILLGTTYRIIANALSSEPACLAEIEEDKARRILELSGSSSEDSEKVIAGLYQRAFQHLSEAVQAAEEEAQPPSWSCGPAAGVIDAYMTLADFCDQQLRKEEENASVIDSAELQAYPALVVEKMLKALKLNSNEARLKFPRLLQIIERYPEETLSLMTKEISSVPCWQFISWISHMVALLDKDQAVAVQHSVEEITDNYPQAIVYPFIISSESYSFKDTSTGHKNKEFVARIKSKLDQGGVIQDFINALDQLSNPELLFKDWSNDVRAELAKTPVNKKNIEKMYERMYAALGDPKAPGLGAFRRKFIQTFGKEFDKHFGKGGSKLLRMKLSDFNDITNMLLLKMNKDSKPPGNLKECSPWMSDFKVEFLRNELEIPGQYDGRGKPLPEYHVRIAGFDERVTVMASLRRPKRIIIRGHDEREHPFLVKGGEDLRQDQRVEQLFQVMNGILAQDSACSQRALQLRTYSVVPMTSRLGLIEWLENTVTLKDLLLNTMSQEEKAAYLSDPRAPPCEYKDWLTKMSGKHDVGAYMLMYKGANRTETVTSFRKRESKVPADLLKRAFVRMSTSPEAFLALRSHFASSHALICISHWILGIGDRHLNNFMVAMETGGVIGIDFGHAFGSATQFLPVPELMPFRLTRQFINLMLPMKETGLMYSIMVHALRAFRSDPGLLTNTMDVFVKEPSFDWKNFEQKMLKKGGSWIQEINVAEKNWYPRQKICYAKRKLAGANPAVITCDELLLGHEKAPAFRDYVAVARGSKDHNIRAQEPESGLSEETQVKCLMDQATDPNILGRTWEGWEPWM
Chain of Aurora kinase B (Homo sapiens) (Q96GD4 whole entry): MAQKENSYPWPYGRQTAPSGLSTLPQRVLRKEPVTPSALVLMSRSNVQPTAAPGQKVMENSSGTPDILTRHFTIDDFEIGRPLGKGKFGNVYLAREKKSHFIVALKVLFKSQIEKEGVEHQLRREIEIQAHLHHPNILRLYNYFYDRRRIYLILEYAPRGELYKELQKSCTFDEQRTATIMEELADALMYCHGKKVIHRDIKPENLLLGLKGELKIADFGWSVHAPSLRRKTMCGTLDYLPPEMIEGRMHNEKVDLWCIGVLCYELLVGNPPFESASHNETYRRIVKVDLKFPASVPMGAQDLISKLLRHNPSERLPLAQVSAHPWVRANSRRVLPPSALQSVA

As usually defined, the inhibition is the change of the read-out against control, counted positive when it falls. A lower inhibition goes with a weak effect. As a reminder, the IC50 is the point on the concentration scale where inhibition reaches its midpoint. For `O=C1c2ccccc2CN1c1nc(NC2CCCCC2)c2nc[nH]c2n1`, the inhibition in assay [1] was determined as 2%; in [2], 1%; in assay [3], 4%; in the assay listed under Homo sapiens, 0%; in [4], 0%; in assay [5], 0%. Further, the inhibition in assay [6] is 0%; in assay [7], 5%; in [8], 0%; in assay [9], 0%; in assay [10] it was 2%; in [11] it was 5%. Besides, the inhibition in [12] turned out to be 3%; in assay [13], 5%; in assay [14], 0%. Further, the values for the IC50 in the assay with MDA-MB-231 and with 4T1 were 36.6 µM and 24.8 µM, respectively.

For the molecule `CCCNc1nc(-n2[se]c3ccccc3c2=O)nc2[nH]cnc12`, the inhibition in assay [1] was determined as 2%; in assay [2], 1%; in assay [3] it was 2%; in the assay listed under Homo sapiens it was 1%; in [4] it was 0%; in assay [5], 0%. Also, the inhibition in assay [6] stood at 0%; in assay [7], 95%; in assay [8] it was 0%; in [9], 0%; in [10], 0%; in [11] it was 2%. Further, the inhibition in assay [12] came out at 2%; in [13], 3%; in assay [14], 1%. Further, the results for the concentration for half-maximal inhibition (IC50) in the assay with MDA-MB-231 and in the assay with 4T1 were 23.2 µM and 11.3 µM, respectively.

Take `O=c1c2ccccc2[se]n1-c1nc(Nc2ccccc2)c2nc[nH]c2n1`: the inhibition in assay [1] is 2%; in assay [2], 1%; in assay [3], 1%; in the assay listed under Homo sapiens, 0%; in [4] it was 0%; in assay [5], 0%. The inhibition in assay [6] came to 0%; in assay [7] it was 28%; in [8] it was 0%; in [9], 0%; in assay [10], 0%; in assay [11] it was 1%. In addition, the results for the inhibition in [12], in assay [13] and in assay [14] were 0%, 8% and 0%, respectively. For the same molecule, the IC50 with MDA-MB-231 is 32.2 µM; in the assay with 4T1, 15.2 µM.

The values above are taken from ChEMBL document CHEMBL5154740, “Novel Aurora A and Protein Kinase C (α, β1, β2, and θ) Multitarget Inhibitors: Impact of Selenium Atoms on the Potency and Selectivity” (J Med Chem, 2022).
